According to patent US20220257642A1, “METHODS AND COMPOSITIONS FOR GENERATING NITRIC OXIDE AND USES THEREOF TO DELIVER NITRIC OXIDE VIA THE RESPIRATORY TRACT” (THIRTY RESPIRATORY LIMITED, priority 2019, published 2022):

Key:
[1] = system: SARS-CoV-2 clinical isolate; assay: SARS-CoV-2 virus yield reduction assay in Vero E6 cells; format: cell-based
Procedure: At time 0 hr, Vero E6 cells were infected with virus in presence of the formulation or controls and incubated for 1 hour. After this incubation period the inoculum was removed and the cells were washed. Fresh formulation or controls were then added to the washed cells. At 24 hours post infection, Vero E6 cell supernatants were harvested and titrated, and the virus titration was incubated for 6 days prior to readout to determine any virus yield reduction. Separate tests were performed at four MOIs including 3.0 and 0.3, although only those two MOIs were titrated. The readout was by crystal violet (cell monolayer) staining, followed by CPE scoring.

CCN(CC)CCCC(C)Nc1ccnc2cc(Cl)ccc12 (stereo not shown) [chloroquine, Chloroquine phosphate]
SARS-CoV-2 virus titre ([1]; FIG. 33, Run 1, MOI 3.0, 24 hours): limit of detection | SARS-CoV-2 virus titre ([1]; FIG. 34, Run 2, MOI 3.0 and MOI 0.3, 48 hours): limit of detection

O=C(O)CC(O)(CC(=O)O)C(=O)O [citric acid pH 5.8, citric acid]
Cytotoxicity on the LDH assay (Vero E6 cells): low cytotoxicity | In vitro antiviral action against SARS-CoV-2 ([1]; FIGS. 33 and 34): high in vitro antiviral action
